The conditions of series [1]: Crystal; DTA.
Series [2] can be described thus: Molar enthalpy of transition or fusion. The note with it: Crystal; DSC.

± gives the expanded uncertainty stated by the source.

With `On1nnc2ccccc21` [1-benzotriazolol], the Normal melting temperature in series [1] amounted to 151.11 ± 1.1 °C. In addition, the “Molar enthalpy of transition or fusion” value in series [2] came to 4.79 ± 0.217 kcal/mol.

The values above are taken from the NIST ThermoML archive (doi:10.1021/acs.jced.7b00316).
